Measurements published in ChEMBL document CHEMBL2406991, “A novel series of metabotropic glutamate receptor 5 negative allosteric modulators based on a 4,5,6,7-tetrahydropyrazolo[1,5-a]pyridine core” (Bioorg Med Chem Lett, 2013).
Values after ≈ are worked out from the molar mass of the structure shown. Active and inactive are the calls of the source. The rule behind the calls is not given here.

Assays:
[1] = target: Metabotropic glutamate receptor 5 (Rattus norvegicus, UniProt P31424); test: Negative allosteric modulation of rat mGluR5 receptor expressed in HEK293 cells assessed as intracellular calcium flux after 170 seconds by FLIPR assay; format: functional, cell-based
Cytochrome P450 3A4 = Cytochrome P450 3A4 (Homo sapiens, UniProt P08684); test: Inhibition of CYP3A4 (unknown origin); format: ADME
Cytochrome P450 2C9 = Cytochrome P450 2C9 (Homo sapiens, UniProt P11712); test: Inhibition of CYP2C9 (unknown origin); format: ADME
Cytochrome P450 2D6 = Cytochrome P450 2D6 (Homo sapiens, UniProt P10635); test: Inhibition of CYP2D6 (unknown origin); format: ADME
[2] = Kinetic solubility of the compound in DMSO at pH 7.4; format: physicochemical; details: read-out: Kinetic_solubility
[3] = Kinetic solubility of the compound in DMSO at pH 1; format: physicochemical; details: read-out: Kinetic_solubility
[4] = Intrinsic clearance in human microsomes measured per mg of protein; format: ADME, Microsome
[5] = Intrinsic clearance in rat microsomes measured per mg of protein; format: ADME, Microsome
[6] = target: Metabotropic glutamate receptor 5 (Rattus norvegicus) (UniProt P31424); test: Displacement of [3H]MPEP from mGluR5 receptor in Sprague-Dawley rat cortical homogenate after 1 hr by liquid scintillation spectrometric analysis
[7] = target: Metabotropic glutamate receptor 5 (Rattus norvegicus) (UniProt P31424); test: Inhibition of rat mGluR5 receptor expressed in HEK293 cells at 30 uM relative to control; format: cell-based
Cytochrome P450 1A2 = target: T1, Cytochrome P450 1A2 (Homo sapiens, UniProt P05177); test: Inhibition of CYP1A2 (unknown origin); format: ADME
T1 sequence (P05177 whole entry): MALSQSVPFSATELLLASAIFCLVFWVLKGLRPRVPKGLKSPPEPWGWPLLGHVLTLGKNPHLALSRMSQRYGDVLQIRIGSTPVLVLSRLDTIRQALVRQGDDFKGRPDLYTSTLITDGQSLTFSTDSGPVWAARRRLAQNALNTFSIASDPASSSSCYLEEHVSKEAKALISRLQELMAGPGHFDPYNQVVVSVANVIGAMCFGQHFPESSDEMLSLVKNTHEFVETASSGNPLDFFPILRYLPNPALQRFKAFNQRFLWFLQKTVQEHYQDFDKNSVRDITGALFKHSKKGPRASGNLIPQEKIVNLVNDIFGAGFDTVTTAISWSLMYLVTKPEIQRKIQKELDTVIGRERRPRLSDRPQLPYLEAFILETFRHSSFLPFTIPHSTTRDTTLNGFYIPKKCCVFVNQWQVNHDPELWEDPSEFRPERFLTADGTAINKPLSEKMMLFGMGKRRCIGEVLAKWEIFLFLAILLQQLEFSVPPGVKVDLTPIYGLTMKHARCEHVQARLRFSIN

Plasma [8] = test: Terminal plasma concentration in Sprague-Dawley rat at 30 mg/kg, po measured during second phase of formalin test; format: ADME, organism-based; design: dose 30 mg/kg, route oral; details: in vivo
Plasma [9] = test: Terminal plasma concentration in Sprague-Dawley rat at 10 mg/kg, po measured during second phase of formalin test; format: ADME, organism-based; design: dose 10 mg/kg, route oral; details: in vivo
Plasma [10] = test: Terminal plasma concentration in Sprague-Dawley rat at 3 mg/kg, po measured during second phase of formalin test; format: ADME, organism-based; design: dose 3 mg/kg, route oral; details: in vivo
Plasma [11] = test: Terminal plasma concentration in Sprague-Dawley rat at 1 mg/kg, po measured during second phase of formalin test; format: ADME, organism-based; design: dose 1 mg/kg, route oral; details: in vivo
Rattus norvegicus [12] = test: Antinociceptive activity in Sprague-Dawley rat assessed as reduction in formalin-induced nocifensive behavior at 1 to 30 mg/kg, po administered 30 mins prior to formalin-challenge measured during first phase of test; format: functional, organism-based
Rattus norvegicus [13] = test: Antinociceptive activity in Sprague-Dawley rat assessed as reduction in formalin-induced nocifensive behavior at 30 mg/kg, po administered 30 mins prior to formalin-challenge measured during second phase of test; format: functional, organism-based; design: dose 30 mg/kg
Rattus norvegicus [14] = test: Antinociceptive activity in po dosed Sprague-Dawley rat assessed as reduction in formalin-induced nocifensive behavior administered 30 mins prior to formalin-challenge measured during second phase of test; format: functional, organism-based
[15] = Fraction unbound in rat plasma; format: ADME, cell-free
Plasma [16] = test: Drug uptake in rat CSF assessed as ratio of CSF to plasma at 30 mg/kg, sc relative to control; format: ADME, organism-based; design: dose 30 mg/kg, route subcutaneous; details: in vivo
[17] = Cmax in rat plasma at 30 mg/kg, sc; format: ADME, organism-based; design: dose 30 mg/kg, route subcutaneous
[18] = Cmax in rat CSF at 30 mg/kg, sc; format: ADME, organism-based, Cerebrospinal fluid; design: dose 30 mg/kg, route subcutaneous
[19] = Volume of distribution at steady state in rat at 3 mg/kg, iv; format: ADME, organism-based; design: dose 3 mg/kg, route intravenous; details: in vivo, read-out: Vdss
[20] = Half life in rat at 3 mg/kg, iv; format: ADME, organism-based; design: dose 3 mg/kg, route intravenous; details: in vivo
[21] = Clearance in rat at 3 mg/kg, iv; format: ADME, organism-based; design: dose 3 mg/kg, route intravenous; details: in vivo
[22] = target: Metabotropic glutamate receptor 5 (Rattus norvegicus) (UniProt P31424); test: Partial negative allosteric modulation of rat mGluR5 receptor expressed in HEK293 cells assessed as intracellular calcium flux after 170 seconds by FLIPR assay relative to control; format: functional, cell-based

Chain of Cytochrome P450 2C9 (P11712 whole entry): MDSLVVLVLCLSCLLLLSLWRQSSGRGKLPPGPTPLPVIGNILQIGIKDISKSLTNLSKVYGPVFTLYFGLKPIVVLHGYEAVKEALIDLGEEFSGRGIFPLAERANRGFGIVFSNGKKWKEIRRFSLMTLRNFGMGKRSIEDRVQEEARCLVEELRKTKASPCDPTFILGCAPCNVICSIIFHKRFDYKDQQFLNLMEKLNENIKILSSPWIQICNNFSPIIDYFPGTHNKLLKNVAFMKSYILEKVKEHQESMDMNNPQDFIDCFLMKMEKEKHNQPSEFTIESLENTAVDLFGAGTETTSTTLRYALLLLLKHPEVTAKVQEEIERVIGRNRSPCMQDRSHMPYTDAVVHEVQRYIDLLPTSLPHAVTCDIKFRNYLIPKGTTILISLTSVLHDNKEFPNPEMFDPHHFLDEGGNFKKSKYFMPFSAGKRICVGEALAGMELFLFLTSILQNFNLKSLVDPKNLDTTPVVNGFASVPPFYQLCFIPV
Chain of Cytochrome P450 2D6 (P10635 whole entry): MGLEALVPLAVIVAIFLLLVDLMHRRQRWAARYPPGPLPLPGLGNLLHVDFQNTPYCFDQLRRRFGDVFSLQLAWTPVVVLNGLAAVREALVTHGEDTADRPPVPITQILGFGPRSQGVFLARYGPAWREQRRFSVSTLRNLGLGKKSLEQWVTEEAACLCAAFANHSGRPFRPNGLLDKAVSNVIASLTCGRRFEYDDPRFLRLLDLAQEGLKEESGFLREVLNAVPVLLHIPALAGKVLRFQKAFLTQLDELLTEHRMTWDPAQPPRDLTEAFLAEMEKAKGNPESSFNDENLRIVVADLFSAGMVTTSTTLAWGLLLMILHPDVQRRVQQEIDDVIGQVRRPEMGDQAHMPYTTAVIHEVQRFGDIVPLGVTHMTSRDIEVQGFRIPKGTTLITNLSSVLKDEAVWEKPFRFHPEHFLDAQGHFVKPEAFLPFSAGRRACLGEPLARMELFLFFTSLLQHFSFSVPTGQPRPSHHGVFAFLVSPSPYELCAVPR
Chain of Cytochrome P450 3A4 (P08684 whole entry): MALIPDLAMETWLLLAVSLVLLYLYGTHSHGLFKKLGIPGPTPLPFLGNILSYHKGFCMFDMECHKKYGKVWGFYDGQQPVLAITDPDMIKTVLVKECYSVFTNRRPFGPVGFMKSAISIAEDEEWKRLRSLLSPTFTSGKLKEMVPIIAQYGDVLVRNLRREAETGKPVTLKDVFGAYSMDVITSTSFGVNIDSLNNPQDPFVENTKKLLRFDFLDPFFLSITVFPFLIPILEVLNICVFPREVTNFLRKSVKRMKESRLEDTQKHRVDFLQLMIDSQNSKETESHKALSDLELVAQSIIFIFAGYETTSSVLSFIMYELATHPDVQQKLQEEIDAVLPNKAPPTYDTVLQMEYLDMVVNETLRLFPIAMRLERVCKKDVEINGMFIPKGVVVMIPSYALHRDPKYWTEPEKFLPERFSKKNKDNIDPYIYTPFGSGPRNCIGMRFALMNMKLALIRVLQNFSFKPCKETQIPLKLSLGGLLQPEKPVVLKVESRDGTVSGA
Chain of Metabotropic glutamate receptor 5 (Rattus norvegicus) (P31424 21-1203 limits assumed): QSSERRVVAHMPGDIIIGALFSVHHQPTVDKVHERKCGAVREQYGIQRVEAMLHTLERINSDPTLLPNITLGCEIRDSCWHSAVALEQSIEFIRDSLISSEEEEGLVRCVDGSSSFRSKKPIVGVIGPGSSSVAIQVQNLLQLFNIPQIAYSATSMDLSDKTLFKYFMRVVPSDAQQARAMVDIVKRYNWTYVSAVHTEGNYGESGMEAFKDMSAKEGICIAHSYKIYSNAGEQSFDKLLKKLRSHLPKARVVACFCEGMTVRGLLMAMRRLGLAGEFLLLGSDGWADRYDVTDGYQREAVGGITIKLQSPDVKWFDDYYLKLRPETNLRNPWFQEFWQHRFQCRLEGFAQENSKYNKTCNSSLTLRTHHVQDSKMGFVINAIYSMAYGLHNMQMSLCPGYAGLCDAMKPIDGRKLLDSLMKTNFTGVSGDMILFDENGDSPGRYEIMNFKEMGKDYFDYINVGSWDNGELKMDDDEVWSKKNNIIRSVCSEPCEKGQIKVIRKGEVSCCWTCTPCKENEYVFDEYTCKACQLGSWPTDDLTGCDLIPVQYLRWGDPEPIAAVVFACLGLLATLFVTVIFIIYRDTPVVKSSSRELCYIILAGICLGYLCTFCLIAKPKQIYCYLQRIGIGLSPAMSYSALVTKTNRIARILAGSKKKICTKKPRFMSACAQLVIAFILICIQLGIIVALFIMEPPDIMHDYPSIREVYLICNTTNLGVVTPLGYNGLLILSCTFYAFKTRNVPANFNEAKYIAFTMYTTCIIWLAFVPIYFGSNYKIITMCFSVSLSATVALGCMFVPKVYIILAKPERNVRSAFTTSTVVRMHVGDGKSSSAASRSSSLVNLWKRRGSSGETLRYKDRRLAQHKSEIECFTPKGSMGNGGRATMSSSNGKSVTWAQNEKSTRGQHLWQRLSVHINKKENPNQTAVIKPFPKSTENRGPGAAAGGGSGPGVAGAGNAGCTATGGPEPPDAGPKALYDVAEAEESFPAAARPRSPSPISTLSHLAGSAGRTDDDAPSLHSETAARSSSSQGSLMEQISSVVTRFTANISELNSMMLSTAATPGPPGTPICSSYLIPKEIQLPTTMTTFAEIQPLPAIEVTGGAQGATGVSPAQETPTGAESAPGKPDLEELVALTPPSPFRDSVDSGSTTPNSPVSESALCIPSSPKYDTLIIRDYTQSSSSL
Chain of Metabotropic glutamate receptor 5 (P31424 whole entry): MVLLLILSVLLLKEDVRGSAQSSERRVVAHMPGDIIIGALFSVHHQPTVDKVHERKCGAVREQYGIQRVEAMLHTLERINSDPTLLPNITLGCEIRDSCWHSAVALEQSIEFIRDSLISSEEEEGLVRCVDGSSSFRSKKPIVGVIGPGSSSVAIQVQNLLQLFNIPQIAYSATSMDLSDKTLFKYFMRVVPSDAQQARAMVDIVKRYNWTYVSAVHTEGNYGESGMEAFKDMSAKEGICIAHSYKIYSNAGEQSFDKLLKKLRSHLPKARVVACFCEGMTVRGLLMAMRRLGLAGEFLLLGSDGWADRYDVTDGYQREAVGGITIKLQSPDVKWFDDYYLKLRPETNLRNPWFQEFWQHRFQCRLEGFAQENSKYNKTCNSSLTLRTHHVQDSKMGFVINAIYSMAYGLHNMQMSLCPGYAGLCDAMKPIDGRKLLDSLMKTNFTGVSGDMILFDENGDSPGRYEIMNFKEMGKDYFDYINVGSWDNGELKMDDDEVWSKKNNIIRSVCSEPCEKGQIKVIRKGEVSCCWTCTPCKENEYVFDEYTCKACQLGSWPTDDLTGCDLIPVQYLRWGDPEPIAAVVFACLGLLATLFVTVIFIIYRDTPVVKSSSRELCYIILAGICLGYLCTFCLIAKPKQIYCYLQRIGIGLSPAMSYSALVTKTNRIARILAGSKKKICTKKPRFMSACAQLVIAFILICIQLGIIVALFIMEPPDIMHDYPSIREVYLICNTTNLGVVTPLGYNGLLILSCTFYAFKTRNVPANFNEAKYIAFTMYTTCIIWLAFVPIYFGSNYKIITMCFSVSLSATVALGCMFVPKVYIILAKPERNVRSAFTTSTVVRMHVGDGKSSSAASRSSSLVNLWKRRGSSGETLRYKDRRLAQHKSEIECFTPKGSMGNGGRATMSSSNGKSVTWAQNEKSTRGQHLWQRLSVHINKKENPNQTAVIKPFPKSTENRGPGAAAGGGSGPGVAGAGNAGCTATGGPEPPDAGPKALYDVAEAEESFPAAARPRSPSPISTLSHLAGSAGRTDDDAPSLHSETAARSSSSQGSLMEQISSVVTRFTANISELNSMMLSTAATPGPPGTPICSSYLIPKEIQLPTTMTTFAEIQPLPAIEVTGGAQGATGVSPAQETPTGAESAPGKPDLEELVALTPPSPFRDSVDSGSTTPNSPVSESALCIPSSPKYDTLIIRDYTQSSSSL

Clc1ccnc(COc2cc3n(n2)CCCC3)c1
IC50 ([1]; read-out: IC50): > 10000 nM

N#Cc1ccccc1COc1cc2n(n1)CCCC2
IC50 ([1]; hek293): Not Active

c1ccc(-c2cc3n(n2)CCCC3)cc1
IC50 ([1]; read-out: IC50): 1890 nM

c1ccc(-c2cc3n(n2)CCCC3)nc1
INH (Cytochrome P450 3A4): > 10 µM
INH (Cytochrome P450 2C9): > 10 µM
INH (Cytochrome P450 2D6): > 10 µM
solubility kinetic [2]: 180 µg/mL (≈ 903 µM)
solubility kinetic [3]: 170 µg/mL (≈ 853 µM)
microsomal CLint [4]: 97 µL/min/mg
microsomal CLint [5]: 118 µL/min/mg
INH [6]: 1180 nM
inhibition [7]: > 99%
IC50 ([1]; read-out: IC50): 1290 nM
INH (Cytochrome P450 1A2): > 10 µM

N#Cc1ccc(CC(=O)c2nn3c(c2C(F)(F)F)CCCC3)nc1
IC50 ([1]; read-out: IC50): 7180 nM

N#Cc1cccnc1NC(=O)c1cc2n(n1)CCCC2
IC50 ([1]; hek293): Not Active

O=C(Nc1ccc(Cl)cn1)c1cc2n(n1)CCCC2
IC50 ([1]; read-out: IC50): 262 nM

Clc1cccc(-c2cc3n(n2)CCCC3)n1
IC50 ([1]; read-out: IC50): 1520 nM

N#Cc1ccc(-c2cc3n(n2)CCCC3)nc1
IC50 ([1]; read-out: IC50): > 10000 nM

Fc1cccc(-c2cc3n(n2)CCCC3)c1
IC50 ([1]; read-out: IC50): 1570 nM

Clc1ccc(COc2cc3n(n2)CCCC3)nc1
IC50 ([1]; read-out: IC50): 1550 nM

O=C(Nc1cccc(F)n1)c1cc2n(n1)CCCC2
IC50 ([1]; read-out: IC50): 4740 nM

Nc1cccnc1NC(=O)c1cc2n(n1)CCCC2
IC50 ([1]; read-out: IC50): > 10000 nM

N#Cc1ccc(COc2cc3n(n2)CCCC3)nc1
INH (Cytochrome P450 3A4): > 10 µM
INH (Cytochrome P450 2C9): > 10 µM
INH (Cytochrome P450 2D6): > 10 µM
solubility kinetic [2]: 100 µg/mL (≈ 393 µM)
solubility kinetic [3]: 160 µg/mL (≈ 629 µM)
microsomal CLint [4]: 85 µL/min/mg
microsomal CLint [5]: 42 µL/min/mg
INH [6]: 299 nM
inhibition [7]: > 99%
IC50 ([1]; read-out: IC50): 316 nM
Cp(T) (Plasma [8]): 501 ng/mL
Cp(T) (Plasma [9]): 46 ng/mL
Cp(T) (Plasma [10]): 5.3 ng/mL
Cp(T) (Plasma [11]): 2.4 ng/mL
Activity (Rattus norvegicus [12]): inactive
Activity (Rattus norvegicus [13]): Active
Activity (Rattus norvegicus [14]): Dose-dependent effect
fraction unbound [15]: 0.32
Drug uptake (Plasma [16]): 14.4%
Cmax [17]: 2900 ng/mL
Cmax [18]: 416 ng/mL
Vd [19]: 1.1 L/kg
half-life [20]: 12 min
clearance [21]: 72 mL/min/kg
INH (Cytochrome P450 1A2): > 10 µM

Clc1cccc(-c2cc3n(n2)CCCC3)c1
solubility kinetic [2]: 20 µg/mL (≈ 85.9 µM)
solubility kinetic [3]: 110 µg/mL (≈ 473 µM)
microsomal CLint [4]: 386 µL/min/mg
microsomal CLint [5]: 384 µL/min/mg
INH [6]: 401 nM
inhibition [7]: > 99%
IC50 ([1]; read-out: IC50): 77 nM
INH (Cytochrome P450 1A2): < 0.75 µM

FC(F)(F)c1cccc(-c2cc3n(n2)CCCC3)c1
IC50 ([1]; read-out: IC50): 3990 nM

N#Cc1ccc(CC(=O)c2cc3n(n2)CCCC3)nc1
INH (Cytochrome P450 3A4): > 10 µM
INH (Cytochrome P450 2C9): > 10 µM
INH (Cytochrome P450 2D6): > 10 µM
solubility kinetic [2]: 30 µg/mL (≈ 113 µM)
solubility kinetic [3]: 80 µg/mL (≈ 300 µM)
microsomal CLint [4]: 46 µL/min/mg
microsomal CLint [5]: 108 µL/min/mg
INH [6]: 139 nM
inhibition [7]: > 99%
IC50 ([1]; read-out: IC50): 53 nM
INH (Cytochrome P450 1A2): > 10 µM

Clc1cccc(COc2cc3n(n2)CCCC3)c1
IC50 [22]: 332 nM

CC(=O)c1ccc(COc2cc3n(n2)CCCC3)nc1
IC50 ([1]; hek293): Not Active

O=C(Cc1ccccn1)c1cc2n(n1)CCCC2
IC50 ([1]; read-out: IC50): 390 nM

COc1cccnc1NC(=O)c1cc2n(n1)CCCC2
IC50 ([1]; hek293): Not Active

COc1cccc(-c2cc3n(n2)CCCC3)c1
IC50 ([1]; read-out: IC50): 4500 nM

Cc1cccc(COc2cc3n(n2)CCCC3)c1
IC50 ([1]; read-out: IC50): 769 nM

Cc1cccc(NC(=O)c2cc3n(n2)CCCC3)n1
IC50 ([1]; hek293): Not Active

Cc1cccc(-c2cc3n(n2)CCCC3)n1
IC50 ([1]; read-out: IC50): 1240 nM

N#Cc1ccc(CC(=O)c2nn3c(c2Cl)CCCC3)nc1
INH (Cytochrome P450 3A4): > 10 µM
INH (Cytochrome P450 2C9): > 10 µM
INH (Cytochrome P450 2D6): > 10 µM
microsomal CLint [4]: 79 µL/min/mg
microsomal CLint [5]: 649 µL/min/mg
inhibition [7]: > 99%
IC50 ([1]; read-out: IC50): 108 nM
INH (Cytochrome P450 1A2): > 10 µM

COc1cccc(NC(=O)c2cc3n(n2)CCCC3)n1
IC50 ([1]; hek293): Not Active
